From US12433870B2, “Supramolecular photoprotection of a photosensitizer” (Northwestern University, priority 2019, dated 2025)

Tests used:
ExBox^4+ and DPP = test: 1H NMR titration, host-guest association constant (1:1 binding model); conditions: 1H NMR titration in (CD3)2CO, 298 K
Protocol: The synthesis of ExBox•4Cl was carried out following our previously reported procedure^17. Solid DPP (0.46 mg, […]) was dissolved in Me2CO (1 mM, 1 mL) and added to a solution of ExBox•4Cl in H2O (1.0 mM, 1 mL). The mixture was sonicated for 15 min, Me2CO was removed in vacuum, and the H2O portion was passed through a 0.45-μm filter to yield 1:1 ExBox^4+⊃DPP complex (FIG. 1A) in water. Upon complex formation, the aqueous solution color changed to light orange-pink or tangerine. […] The resonances for the α and CH2 protons of ExBox^4+ were affected only slightly by the shielding effect of DPP as they are located at the corners and display only slight shifts in their […] spectra. This pattern is in excellent agreement with the inclusion of DPP inside ExBox^4+ in solution. […] The association constant (Ka) obtained from 1:1 binding model was calculated to be 12600±300 M^−1 from the chemical shifts of […] titrations experiments (FIG. 1B-1C) between ExBox^4+ and DPP in (CD3)2CO.
The ^1H NMR (298 K, 500 MHz) titration was performed by adding small volumes of a solution of DPP in Me2CO-d6 to a solution of ExBox•4PF6 in Me2CO-d6. […]
(CD3)2CO stock solutions of ExBox^4+ (0.4 mM) and DPP (5.4 mM) were prepared. […] The NMR spectra were recorded after each addition of DPP solution. […]

A2780 cells [1] = test: Calcein-AM/Ethidium homodimer-1 live-dead assay; format: cell-based, human; conditions: 10 μM
Protocol: A2780 cells (1×10^5 cells/mL, 300 μL) were plated in each well of an 8-well μ-slide (ibidi cell focus) and cultured overnight. PBS solution of ExBox^4+⊃DPP was added to each well and incubated for predetermined time points. For cellular co-localization studies, cells were washed with phenol free DMEM and stained with LysoTracker green (lysosome stain, 1:1000 dilution) or MitoSpy™ Green FM (mitochondria stain, 1:2000 dilution) or NucBlue™ Live ReadyProbes™ Reagent (nuclei stain, 1 drop). For the live-dead assay, cells were incubated with PBS solution of ExBox^4+⊃DPP irradiated for 10 min at […] light intensity, incubated overnight, and stained with Calcein AM (2 μM) and Ethidium homodimer-1 (4 μM). Plated cells were imaged within a humidified chamber using a 63× oil-immersion objective on a SP5 Leica Confocal Microscope using HyD detectors and lasers.

[2] = pH-dependent release of DPP from the complex (fluorescence and transient absorption, pH 4.5); format: physicochemical
Description: At low pH, DPP can be protonated. Therefore, the electrostatic repulsion between the cationic DPP and the tetracationic host ExBox^4+ can trigger release of DPP in H2O. Indeed, when aqueanous solution of ExBox^4+⊃DPP is acidified with HCl (pH 4.5), protonated DPP was released in H2O leading to 17-fold increment of fluorescence signals (FIG. 4A). […] The residual population survived for several microseconds and has a transient absorption spectrum of ^3*DPP; the […] (FIGS. 4D-4E) approximates the decay of the long-lived triplet state in aerated, room temperature aqueous solution. […] We estimate this fraction to be approximately 30% at the ˜20 μM concentration of the transient absorption experiments.
The setup for transient absorption measurements has been described elsewhere.^3 Photoexcitation pulses at 414 nm were obtained through a beta barium borate (BBO) crystal doubling the fundamental, and the 575 nm pulses were generated with a laboratory-constructed optical parametric amplifier. The pulse power for photoexcitation was attenuated to ˜1 μJ/pulse, using neutral density filters. The pump polarization was randomized employing a commercial depolarizer (DPU-25-A, Thorlabs, Inc.) to eliminate any orientational dynamics contributions from the experiment. […]

A2780 cells [3] = test: Annexin V FITC/7-AAD apoptosis assay; format: cell-based; conditions: for intact cells: dark conditions
Protocol: A2780 cells (5×10^5 cells/mL, 100 μL) were seeded in each well of a Black 96-well plate and incubated with 5 or 10 μM PBS solution of ExBox^4+⊃DPP for 12 h. After incubation, cells were washed with 1×PBS, added with 100 μL of DMEM and immediately irradiated with visible light using Max-303 Xenon Light Source (385-740 nm, Asahi Spectra) at 25 and 50 mW light intensities for 10 min. After irradiation, cells were incubated for an additional 3 h prior to being trypsinized and recovered for annexin V staining. 50 μL of Annexin V solution (1:50 FITC Annexin V in Annexin V staining buffer) was added to cells and was incubated at room temperature for 20 min. 500 μL of 1×PBS was then added to cells, which were centrifuged at 400 ref for 5 min, and the supernatant was discarded. Cells were resuspended in 100 μL of 1:20 7-AAD in cell staining buffer and were incubated for 10 min prior to analysis on a BD Fortessa flow cytometer. Cells were first gated for singlet events using FSC-A vs. FSC-H, after which debris was excluded used FSC-A vs. SSC-A. All remaining events were gated as live, dead, or apoptotic based on annexin V staining vs. 7-AAD staining, with dead cells staining 7-AAD+, live cells staining as 7-AAD- and annexin-V-, and apoptotic cells staining 7-AAD-annexin-V+. Cells without irradiation were used as controls.

C1=Cc2nc1cc1ccc([nH]1)c(-c1ccccc1)c1nc(cc3ccc([nH]3)c2-c2ccccc2)C=C1.c1cc2ccc1C[n+]1ccc(cc1)-c1ccc(cc1)-c1cc[n+](cc1)Cc1ccc(cc1)C[n+]1ccc(cc1)-c1ccc(cc1)-c1cc[n+](cc1)C2 [ExBox^4+⊃DPP]
association constant (Ka) (ExBox^4+ and DPP): 12600 ± 300 M⁻¹ | live-dead staining (A2780 cells [1]; 0.156 J cm^−2 light dose for 10 min): red fluorescence | live-dead staining (A2780 cells [1]; dark conditions): bright green fluorescence | increment of fluorescence signals on release of protonated DPP ([2]; aqueous solution acidified with HCl (pH 4.5) versus pH 7, λex=414 nm): 17 fold | fraction of the complex population with DPP released (electron transfer turned off) ([2]; pH 4.5, ~20 μM, transient absorption): approximately 30% | intact cells (A2780 cells [3]; 5 μM): 79% | apoptotic cells (A2780 cells [3]; 10 μM versus 5 μM, 0.078 or 0.156 Jcm^−2 light dose, 3 h post irradiation): a smaller number of apoptotic cells | intact cells (A2780 cells [3]; 10 μM): 72%
